Several values for one entry are separate records, joined by “and”; a condition that tells them apart may be missing. Identical values can stand only once. Like-named read-outs stand apart in the source and are kept apart here.

One data set concerns the target T1, human Hsc70 (HSPA8) (Homo sapiens, UniProt P11142).
T1 construct: made in house
Description: ELISA competitive binding assay (biotinylated MKT-077 displacement). The settings on record: competitive ELISA, biotin labeled MKT-077 1 μM. How it is done: Binding of MKT-077 analogs to immobilized Hsp70 was evaluated using a competitive ELISA. In this established assay, a biotinylated version of MKT-077 is bound to immobilized human Hsc70 (HSPA8) and potential competitors are tested for their ability to block the interaction.
A sample of Hsc70 (50 μL; 0.06 mg/mL) was immobilized in clear flat-bottom 96-well plate in MES buffer (50 mM 2-(N-morpholino)ethanesulfonic acid, pH 5.2) at 37° C. overnight. After discarding the excess protein solution, each well was washed three times with 150 μL TBS-T buffer (25 mM Tris, 140 mM NaCl, 2.7 mM KCl, 0.01% Tween-20, pH 7.4). Then, 1 μL of compound (1% DMSO) was diluted into 24 μL of binding buffer (100 mM Tris, 20 mM KCl, 6 mM MgCl2, 0.01% Triton-X100) and incubated at room temperature for 30 min. Biotin labeled MKT-077 (final concentration 1 μM; 25 μL) was subsequently added into each well and the mixture was incubated at room temperature for another 3 hrs. The wells were washed with 150 μL TBS-T buffer three times prior to blocking with 100 μL 3% bovine serum albumin (BSA) in TBS-T buffer for 5 min at room temperature. After the removal of the BSA solution, 50 μL of HRP-streptavidin (Pierce Biotechnology, 1:50000 TBS-T dilution) solution was added and the plates were incubated at room temperature for 1 hr. The HRP-streptavidin solution was removed and wells were washed three times with 150 μL TBS-T. […] substrate (Cell Signaling Technology 100 μL) was added into each well and incubated at room temperature until a visible blue color was shown in wells (about 20 min). 1 M HCl stop solution was then added into each well to yield a yellow solution and the absorbance at 450 nm was recorded on SpectraMax M5 (Molecular Devices).
(ELISA stands for enzyme-linked immunosorbent assay.)

The next data set concerns the target T2, human Hsc70NBD (Homo sapiens, UniProt P11142).
T2 construct: made in house
Description: Biolayer interferometry (Octet Red), Hsc70NBD. The format is binding. The settings on record: immobilized biotinylated Hsc70NBD. How it is done:
(§1) Binding of MKT-077 analogs to immobilized Hsp70 was evaluated using a competitive ELISA. In this established assay, a biotinylated version of MKT-077 is bound to immobilized human Hsc70 (HSPA8) and potential competitors are tested for their ability to block the interaction. […] As further controls, the truncated compounds YM-02, YM-03, YM-04 and YM-07 were tested.
(§2) Biotinylated human Hsc70NBD or full length Hsp72 were first immobilized on super streptavidin biosensors (ForteBio, 18-5057) as follows: biosensors were soaked with MG buffer (100 mM Tris base, 20 mM KCl, 6 mM MgCl2, 0.01% Triton X-100, pH 7.4) for 10 min before moving them to wells either containing 200 μL […] biotinylated proteins or […] biocytin for 60 min. The free streptavidin sites were subsequently quenched with […] biocytin for 10 min. The biosensors were washed with MG buffer for 5 min prior to beginning the binding experiments. The association and disassociation steps were carried out in MG buffer with a constant 10% DMSO concentration. All steps were performed at room temperature and with 1000 rpm rotary shaking. […] The apparent affinities of YM-08 for Hsc70NBD and Hsp72 were calculated from both equilibrium measurements and global fits of the kon and koff values, yielding similar values.
In general terms: BLI is a label-free optical method that tracks binding on a fibre tip over time.

A further data set concerns the target T3, Hsp72 (HSPA1) (Homo sapiens, UniProt P0DMV8).
T3 construct: Biotinylated human Hsc70NBD or full length Hsp72 were first immobilized; made in house
In words: Biolayer interferometry (Octet Red), Hsp72. The format is binding. The settings on record: immobilized full length Hsp72. How it is done: as §1, §2

Data set [1] in a line: Pharmacokinetics of YM-08 in plasma and brain, CD1 mice. The data set is classed as in vivo, mouse. How it is done: The initial pharmacokinetics (PK) of YM-01 and YM-08 were tested in CD1 mice. […] After a single 6.6 mg/kg dose delivered i.v., the peak brain concentration of YM-08 was 4 μg/g (FIG. 7B) and the ratio in the brain:plasma (B/P) ratio was approximately 0.25 for 18 hrs (FIG. 7C). […] It is not yet clear how much tau levels need to be reduced to achieve therapeutic effects in disease models, but the area-under-the-curve (AUCinf) for YM-08 in the brain was 0.26 μg·hr/g and the AUCinf in plasma was 13.6 μg·hr/mL.
Female CD-1 mice (25-30 g in body weight) were purchased from Charles River Laboratories (Wilmington, Mass.). Mice were treated with 6 mg/kg YM-08 through the tail-vein injection. The plasma and brain were collected at 0.016, 0.08, 0.16, 0.25, 0.5, 1, 2, 4, 6, 13, 18, 24 and 48 h after drug administration. Whole blood samples were drawn through the cardiac puncture using a heparinized syringe with a 22 gauge needle, followed by centrifugation at 3,000 g for 10 min at 4° C. to obtain plasma. Collected tissues were washed with PBS, immediately frozen using liquid nitrogen, and stored at −80° C. until further analysis. Tissue homogenates were prepared by adding PBS (1:5 w/v, homogenate/PBS) and homogenization for 3 min. Compound was extracted from 100 μL of sample by adding 300 μL of acetonitrile containing 50 ng/mL IS, followed by vortexing for 3 min. The supernatant was collected and subjected to LC-MS/MS analysis.
The separation of YM-08 and internal standard was performed using Agilent 1200 HPLC system (Agilent Technologies, Santa Clara, Calif.) and Zobarx SB-C18 column (2.1×50 mm, 3.5 μm) (Agilent Technologies). […] The compounds were eluted with an fixed gradient of 20% solvent A and 80% of solvent B. Solvent A consisted of 0.1% (v/v) glacial acetic acid in water and solvent B consisted of 0.1% (v/v) glacial acetic acid in acetonitrile. After injecting 10 μl of samples into HPLC system, the elution was performed over 2 min at a flow rate of 0.4 ml/min. The YM-08 and MKT-077 eluents were detected using QTRAP 3200 mass spectrometer (Applied Biosystems/MDS Sciex, Foster City, Calif.) equipped with an electrospray ionization source (ESI). The temperature of ESI was set at 650° C. and curtain gas, gas 1, and gas 2 were set to 30, 50, and 50 units, respectively. A positive voltage at 5500 V was applied through ESI to convert the eluents to ions in the form of MH+. The ions were detected using a MRM mode. The ion transitions from the precursor ion (m/z 368) to the fragment ion (m/z=222) and from the precursor ion (m/z 396) to the fragment ion (m/z=175) were used to detect YM-08 and IS, respectively.

T2 sequence (P11142 2-386 limits assumed): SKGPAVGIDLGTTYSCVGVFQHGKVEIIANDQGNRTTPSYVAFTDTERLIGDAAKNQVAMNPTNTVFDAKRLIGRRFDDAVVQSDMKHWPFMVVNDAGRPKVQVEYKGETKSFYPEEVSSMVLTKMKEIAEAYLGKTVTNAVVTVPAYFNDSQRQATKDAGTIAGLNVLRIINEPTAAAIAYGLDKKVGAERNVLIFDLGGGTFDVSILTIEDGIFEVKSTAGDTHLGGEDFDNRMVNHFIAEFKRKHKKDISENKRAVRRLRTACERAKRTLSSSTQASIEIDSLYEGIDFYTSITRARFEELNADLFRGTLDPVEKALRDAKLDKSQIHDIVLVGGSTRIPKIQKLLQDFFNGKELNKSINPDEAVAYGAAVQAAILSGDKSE
T1 sequence (P11142 whole entry): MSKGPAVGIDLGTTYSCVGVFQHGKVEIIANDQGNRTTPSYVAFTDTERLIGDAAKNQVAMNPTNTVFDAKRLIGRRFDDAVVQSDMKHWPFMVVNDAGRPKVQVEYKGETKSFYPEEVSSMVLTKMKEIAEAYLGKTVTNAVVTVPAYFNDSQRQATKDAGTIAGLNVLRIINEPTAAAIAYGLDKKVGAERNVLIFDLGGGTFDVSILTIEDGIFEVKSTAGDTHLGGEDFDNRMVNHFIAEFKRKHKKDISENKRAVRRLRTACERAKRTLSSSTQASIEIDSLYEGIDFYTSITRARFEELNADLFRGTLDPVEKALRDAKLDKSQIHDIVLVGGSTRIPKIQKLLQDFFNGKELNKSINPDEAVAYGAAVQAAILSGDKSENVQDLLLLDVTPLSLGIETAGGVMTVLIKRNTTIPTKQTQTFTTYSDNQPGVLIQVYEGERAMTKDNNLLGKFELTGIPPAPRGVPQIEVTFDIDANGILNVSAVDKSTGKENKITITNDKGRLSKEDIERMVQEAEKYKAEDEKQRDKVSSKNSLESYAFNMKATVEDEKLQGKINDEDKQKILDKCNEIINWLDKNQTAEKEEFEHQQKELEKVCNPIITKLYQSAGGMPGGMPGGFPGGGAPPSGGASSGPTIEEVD
T3 sequence (P0DMV8 whole entry): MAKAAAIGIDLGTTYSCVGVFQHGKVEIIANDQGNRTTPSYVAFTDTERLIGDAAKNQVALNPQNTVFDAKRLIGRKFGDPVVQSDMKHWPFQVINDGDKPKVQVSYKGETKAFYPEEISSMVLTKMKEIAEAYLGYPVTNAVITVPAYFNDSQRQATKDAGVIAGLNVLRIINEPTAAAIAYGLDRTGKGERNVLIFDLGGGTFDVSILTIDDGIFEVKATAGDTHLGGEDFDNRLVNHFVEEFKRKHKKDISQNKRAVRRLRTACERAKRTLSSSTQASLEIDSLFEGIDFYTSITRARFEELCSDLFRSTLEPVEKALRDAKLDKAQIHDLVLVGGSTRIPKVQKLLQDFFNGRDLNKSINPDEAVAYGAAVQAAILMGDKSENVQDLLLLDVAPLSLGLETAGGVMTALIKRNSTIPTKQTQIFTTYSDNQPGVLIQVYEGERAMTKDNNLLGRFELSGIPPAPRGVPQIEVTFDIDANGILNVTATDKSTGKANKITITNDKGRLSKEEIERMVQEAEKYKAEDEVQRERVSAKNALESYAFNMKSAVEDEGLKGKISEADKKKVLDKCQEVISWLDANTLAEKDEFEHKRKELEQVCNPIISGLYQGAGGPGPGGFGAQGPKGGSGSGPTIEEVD

The term IC50 denotes the concentration that gives 50% inhibition. A word on the Kd: it is a measure of binding affinity in units of concentration. A low value points to tighter binding. `CCn1c(=O)/c(=C2\Sc3ccccc3N2C)s/c1=C\c1ccccn1` [YM-08, (2Z,5E)-3-ethyl-5-(3-methylbenzo[d]thiazol-2(3H)-ylidene)-2-(pyridin-2-ylmethylene)thiazolidin-4-one] returned an IC50 at human Hsc70 (HSPA8) of 610 ± 50 nM. Further, the Kd at human Hsc70NBD was ~2.3 µM and ~4 µM; on Hsp72 (HSPA1), around 2000 nM. Moreover, the “AUCinf in the brain” value in data set [1] (6.6 mg/kg i.v.) turned out to be 0.26 µg·h/g. For the same compound, the half-life in data set [1] (female, CD-1, mouse, brain, iv, 6.6 mg/kg i.v., read-out: terminal halftime in the brain (t1/2; brain) (converted)) was 408 min; in data set [1] (female, CD-1, mouse, plasma, iv, 6.6 mg/kg i.v., read-out: t1/2, plasma (converted)), 588 min. Besides, in data set [1] (female, CD-1, mouse, brain/plasma, iv, 6.6 mg/kg, 6.6 mg/kg i.v., for 18 hrs, read-out: brain:plasma (B/P) ratio), the Kp at 18 h was around 0.25. Further, in data set [1] (female, CD-1, mouse, plasma, iv, 6.6 mg/kg i.v., read-out: AUCinf in plasma), the AUC(0-inf) was found to be 13600 ng·h/mL. The peak brain concentration in data set [1] (single 6.6 mg/kg i.v., Cremophor mixture) was 4 µg/g.

Source of the values: US9808448B2, “Pharmaceutical compounds and use of same in cancer and tauopathies” (THE REGENTS OF THE UNIVERSITY OF MICHIGAN, priority 2013, dated 2017).
